PubChem BioAssay (NCI)
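Test compounds were applied to cells in 96-well plates for 48 hours at 5 doses. The concentration for full growth arrest is given as TGI.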

How the values were obtained:
Assay in all cases: NCI tumour cell line growth inhibition, 48 h
OVCAR-5 ovarian = test system: OVCAR-5 ovarian
SF-268 CNS = test system: SF-268 CNS
SK-MEL-2 melanoma = test system: SK-MEL-2 melanoma
MALME-3M melanoma = test system: MALME-3M melanoma
K-562 leukemia = test system: K-562 leukemia
KM12 colon = test system: KM12 colon
ACHN renal = test system: ACHN renal
HCT-15 colon = test system: HCT-15 colon
SK-MEL-28 melanoma = test system: SK-MEL-28 melanoma
CCRF-CEM leukemia = test system: CCRF-CEM leukemia
OVCAR-3 ovarian = test system: OVCAR-3 ovarian
MOLT-4 leukemia = test system: MOLT-4 leukemia
MDA-N = test system: MDA-N
MCF7 breast = test system: MCF7 breast
TK-10 renal = test system: TK-10 renal
SR leukemia = test system: SR leukemia
LOX IMVI melanoma = test system: LOX IMVI melanoma
OVCAR-8 ovarian = test system: OVCAR-8 ovarian
HS 578T breast = test system: HS 578T breast
HT29 colon = test system: HT29 colon
UACC-62 melanoma = test system: UACC-62 melanoma
IGROV1 ovarian = test system: IGROV1 ovarian
SF-539 CNS = test system: SF-539 CNS
DU-145 prostate = test system: DU-145 prostate
A498 renal = test system: A498 renal
EKVX NSCLC = test system: EKVX NSCLC
UO-31 renal = test system: UO-31 renal
HCT-116 colon = test system: HCT-116 colon
786-0 renal = test system: 786-0 renal
NCI/ADR-RES ovarian = test system: NCI/ADR-RES ovarian
MDA-MB-231 breast = test system: MDA-MB-231 breast
UACC-257 melanoma = test system: UACC-257 melanoma
A549 NSCLC = test system: A549 NSCLC
SK-OV-3 ovarian = test system: SK-OV-3 ovarian
SF-295 CNS = test system: SF-295 CNS
COLO 205 colon = test system: COLO 205 colon
HOP-62 NSCLC = test system: HOP-62 NSCLC
SW-620 colon = test system: SW-620 colon
OVCAR-4 ovarian = test system: OVCAR-4 ovarian
PC-3 prostate = test system: PC-3 prostate
MDA-MB-435 = test system: MDA-MB-435
SN12C renal = test system: SN12C renal
U251 CNS = test system: U251 CNS
NCI-H226 lung = test system: NCI-H226 lung
NCI-H23 lung = test system: NCI-H23 lung
M14 melanoma = test system: M14 melanoma
RPMI-8226 leukemia = test system: RPMI-8226 leukemia
SNB-75 CNS = test system: SNB-75 CNS
SK-MEL-5 melanoma = test system: SK-MEL-5 melanoma
SNB-19 CNS = test system: SNB-19 CNS
CAKI-1 renal = test system: CAKI-1 renal
NCI-H522 lung = test system: NCI-H522 lung
NCI-H460 lung = test system: NCI-H460 lung
HCC-2998 colon = test system: HCC-2998 colon
HL-60(TB) leukemia = test system: HL-60(TB) leukemia
RXF 393 renal = test system: RXF 393 renal
BT-549 breast = test system: BT-549 breast
HOP-92 NSCLC = test system: HOP-92 NSCLC
T-47D breast = test system: T-47D breast

Measured: TGI

CC(=O)Oc1cc2oc(=O)cc(C)c2cc1OC(C)=O
not listed: CAKI-1 renal | NCI-H522 lung | NCI-H460 lung | HCC-2998 colon | HL-60(TB) leukemia | RXF 393 renal | BT-549 breast | HOP-92 NSCLC | T-47D breast
> 100 µM: all other assays above

O=S(CCc1ccccc1)Nc1ccccc1 (centres undefined)
not listed: SK-MEL-2 melanoma | UACC-62 melanoma | A498 renal | SK-OV-3 ovarian | OVCAR-4 ovarian | BT-549 breast | HOP-92 NSCLC | T-47D breast
> 100 µM: all other assays above

COCn1cnc2c(=O)n(-c3ccc(C)cc3)c(=S)n(-c3ccc(C)cc3)c21
not listed: MDA-N
> 100 µM: all other assays above
